Usually melting point stands for the temperature, or range, at which the solid turns liquid.

This note sets out measurements from US8084649B2, “Herbicides” (Syngenta Crop Protection, inc., priority 2007, dated 2011).

Series [1] relates to Avena fatua (AVEFA). As to the kind of experiment: Post-emergence herbicidal activity, glasshouse pot test. In kind it is in vivo. The settings on record: Avena fatua, rate 125 g/ha, evaluated after 14 or 15 days, read-out: Post-emergence activity, AVEFA (100=total damage to plant; 0=no damage to plant). Summed up: (§1)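 Visual damage ratings on a 0–100 scale (100 = plant killed) were taken 14 or 15 days after treatment. Seedlings had been raised for 10 days in sterilised soil in a glasshouse before spraying with an aqueous solution of the formulated active ingredient.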

For series [2], the system named is Setaria faberi (SETFA). The description is as above. In kind it is in vivo. The settings on record: Setaria faberi, rate 125 g/ha, evaluated after 14 or 15 days, read-out: Post-emergence activity, SETFA (100=total damage to plant; 0=no damage to plant). Summed up: as §1
The test system of series [3] is Lolium perenne (LOLPE). The description is as above. In kind it is in vivo. The note with it: Lolium perenne, rate 125 g/ha, evaluated after 14 or 15 days, read-out: Post-emergence activity, LOLPE (100=total damage to plant; 0=no damage to plant). Summed up: as §1
For series [4], the system named is Alopecurus myosuroides (ALOMY). Described as above. In kind it is in vivo. The note with it: Alopecurus myosuroides, rate 125 g/ha, evaluated after 14 or 15 days, read-out: Post-emergence activity, ALOMY (100=total damage to plant; 0=no damage to plant). Summed up: as §1
The subject of series [5] is Echinochloa crus-galli (ECHCG). The description is as above. It is filed as in vivo. The settings on record: Echinochloa crus-galli, rate 125 g/ha, evaluated after 14 or 15 days, read-out: Post-emergence activity, ECHCG (100=total damage to plant; 0=no damage to plant). In a few lines:
as §1

The test system of series [6] is Digitaria sanguinalis (DIGSA). The series is described as above. In kind it is in vivo. The settings on record: Digitaria sanguinalis, rate 125 g/ha, evaluated after 14 or 15 days, read-out: Post-emergence activity, DIGSA (100=total damage to plant; 0=no damage to plant). Summed up: as §1
The test system of series [7] is Avena fatua (AVEFA). As to the kind of experiment: Pre-emergence herbicidal activity, glasshouse pot test. The note with it: Avena fatua, 480 h, rate 500 g/ha, evaluated after 20 days, read-out: Pre-emergence activity, AVEFA (100=total damage to plant; 0=no damage to plant). In kind it is in vivo. In a few lines: (§2)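 Damage was rated visually 20 days after treatment, from 0 (none) to 100 (plant killed). Treatment was a pre-emergence spray of aqueous formulated compound applied to pots sown one day earlier in sterilised soil, with plants then kept under optimum greenhouse conditions.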

The test system of series [8] is Setaria faberi (SETFA). Described as above. In kind it is in vivo. The settings on record: Setaria faberi, 480 h, rate 500 g/ha, evaluated after 20 days, read-out: Pre-emergence activity, SETFA (100=total damage to plant; 0=no damage to plant). In a few lines:
as §2

In series [9] the test system is Lolium perenne (LOLPE). Described as above. It is filed as in vivo. The settings on record: Lolium perenne, 480 h, rate 500 g/ha, evaluated after 20 days, read-out: Pre-emergence activity, LOLPE (100=total damage to plant; 0=no damage to plant). Summed up: as §2
For series [10], the system named is Alopecurus myosuroides (ALOMY). The series is described as above. It is filed as in vivo. The note with it: Alopecurus myosuroides, 480 h, rate 500 g/ha, evaluated after 20 days, read-out: Pre-emergence activity, ALOMY (100=total damage to plant; 0=no damage to plant). Summed up:
as §2

For series [11], the system named is Echinochloa crus-galli (ECHCG). The series is described as above. In kind it is in vivo. The settings on record: Echinochloa crus-galli, 480 h, rate 500 g/ha, evaluated after 20 days, read-out: Pre-emergence activity, ECHCG (100=total damage to plant; 0=no damage to plant). In a few lines:
as §2

The subject of series [12] is Digitaria sanguinalis (DIGSA). Described as above. In kind it is in vivo. The note with it: Digitaria sanguinalis, 480 h, rate 500 g/ha, evaluated after 20 days, read-out: Pre-emergence activity, DIGSA (100=total damage to plant; 0=no damage to plant). In a few lines: as §2

In the case of `Cc1ccc(C)c(C2=C(OC(=O)N(C)CCC#N)CC3(CCOCC3)CC2=O)c1` [Compound P57], the melting point was 108 to 114 °C.

On to `CCCS(=O)(=O)C(C)CC1CC(=O)C(c2c(C)cc(C)cc2C)=C(O)C1` (stereo not shown) [Compound T40], for which the pest or weed control at 125 g/ha in the series on Avena fatua (AVEFA) [1] is 30%; in the series with Setaria faberi (SETFA) [2], 50%; in the series on Lolium perenne (LOLPE) [3], 80%; in [4], 80%; in series [5] it was 60%; in [6] it was 50%. Besides, the pest or weed control at 500 g/ha in the series with Avena fatua (AVEFA) [7] was 50%; in the series with Setaria faberi (SETFA) [8], 60%; with Lolium perenne (LOLPE) [9], 90%; in series [10], 80%; in series [11], 70%; in series [12] it was 50%.

Turning to `CCC[S+]([O-])C(C)CC1CC(=O)C(c2c(C)cc(C)cc2C)=C(O)C1` (stereo not shown) [Compound T41], the pest or weed control at 125 g/ha came to 70% in the series with Avena fatua (AVEFA) [1]; 50% in the series with Setaria faberi (SETFA) [2]; 80% in the series on Lolium perenne (LOLPE) [3]; 90% in series [4]; 70% in [5]; 80% in series [6]. Moreover, the pest or weed control at 500 g/ha was 60% in the series on Avena fatua (AVEFA) [7]; 80% in the series on Setaria faberi (SETFA) [8]; 100% with Lolium perenne (LOLPE) [9]; 90% in [10]; 80% in series [11]; 100% in series [12].

Regarding `CCc1cc(C)cc(CC)c1C1=C(O)CC2(CC[S+]([O-])CC2)CC1=O` (stereo not shown) [Compound T52], the pest or weed control at 125 g/ha in the series on Avena fatua (AVEFA) [1] was determined as 60%; in the series on Setaria faberi (SETFA) [2] it was 20%; in the series on Lolium perenne (LOLPE) [3], 40%; in [4] it was 60%; in series [5] it was 30%; in series [6], 60%. The pest or weed control at 500 g/ha in the series on Avena fatua (AVEFA) [7] is 100%; in the series with Setaria faberi (SETFA) [8], 70%; in the series with Lolium perenne (LOLPE) [9], 100%; in series [10] it was 90%; in series [11], 10%; in [12], 70%.

Turning to `CCc1cc(C)cc(CC)c1C1=C(O)CC2(CCS(=O)(=O)CC2)CC1=O` [Compound T53], the pest or weed control at 125 g/ha was 80% with Avena fatua (AVEFA) [1]; 60% with Setaria faberi (SETFA) [2]; 70% in the series on Lolium perenne (LOLPE) [3]; 80% in series [4]; 100% in series [5]; 90% in [6]. The pest or weed control at 500 g/ha in the series with Avena fatua (AVEFA) [7] was found to be 80%; with Setaria faberi (SETFA) [8], 30%; in the series with Lolium perenne (LOLPE) [9], 90%; in [10] it was 60%; in series [11] it was 100%; in [12] it was 100%.

Regarding `CCc1cc(C)cc(CC)c1C1=C(O)CC(CC(C)S(=O)(=O)C(C)C)CC1=O` (stereo not shown) [Compound T54], the pest or weed control at 125 g/ha was 60% in the series with Avena fatua (AVEFA) [1]; 50% with Setaria faberi (SETFA) [2]; 80% in the series on Lolium perenne (LOLPE) [3]; 80% in [4]; 80% in series [5]; 70% in series [6]. Besides, the pest or weed control at 500 g/ha worked out at 80% in the series with Avena fatua (AVEFA) [7]; 80% with Setaria faberi (SETFA) [8]; 100% with Lolium perenne (LOLPE) [9]; 100% in series [10]; 100% in [11]; 100% in [12].

Take `CCc1cc(C)cc(CC)c1C1=C(O)CC(CC(C)[S+]([O-])C(C)C)CC1=O` (stereo not shown) [Compound T55]: the pest or weed control at 125 g/ha turned out to be 80% with Avena fatua (AVEFA) [1]; 60% in the series on Setaria faberi (SETFA) [2]; 80% in the series with Lolium perenne (LOLPE) [3]; 90% in series [4]; 90% in [5]; 80% in series [6]. The pest or weed control at 500 g/ha was found to be 90% in the series on Avena fatua (AVEFA) [7]; 90% in the series on Setaria faberi (SETFA) [8]; 100% in the series on Lolium perenne (LOLPE) [9]; 100% in series [10]; 100% in series [11]; 100% in series [12].

`CCc1ccc(-c2ccc(Cl)cc2)cc1C1=C(O)CC(CCSC)CC1=O` (stereo not shown) [Compound T65]: the pest or weed control at 125 g/ha was found to be 90% in the series with Avena fatua (AVEFA) [1]; 90% in the series on Setaria faberi (SETFA) [2]; 70% with Lolium perenne (LOLPE) [3]; 90% in series [4]; 100% in series [5]; 90% in [6]. Also, the pest or weed control at 500 g/ha in the series on Avena fatua (AVEFA) [7] is 60%; in the series on Setaria faberi (SETFA) [8], 100%; in the series on Lolium perenne (LOLPE) [9], 70%; in series [10] it was 90%; in [11], 100%; in series [12], 100%.

Take `CCc1cc(C)cc(CC)c1C1=C(O)CC2(CCC(OC)CC2)CC1=O` (stereo not shown) [Compound T68]: the pest or weed control at 125 g/ha with Avena fatua (AVEFA) [1] turned out to be 40%; in the series on Setaria faberi (SETFA) [2], 20%; in the series with Lolium perenne (LOLPE) [3], 80%; in [4], 80%; in series [5], 20%; in [6] it was 30%. Also, the pest or weed control at 500 g/ha with Avena fatua (AVEFA) [7] turned out to be 70%; with Setaria faberi (SETFA) [8], 30%; in the series on Lolium perenne (LOLPE) [9] it was 100%; in series [10], 90%; in [11], 70%; in series [12] it was 100%.

Take `COC1CCC2(CC1)CC(=O)C(c1cc(-c3ccc(Cl)cc3)ccc1C)=C(O)C2` (stereo not shown) [Compound T69]: the pest or weed control at 125 g/ha with Avena fatua (AVEFA) [1] amounted to 10%; in the series with Setaria faberi (SETFA) [2], 0%; in the series with Lolium perenne (LOLPE) [3], 50%; in series [4], 20%; in [5] it was 0%; in series [6], 0%. Moreover, the pest or weed control at 500 g/ha with Avena fatua (AVEFA) [7] worked out at 30%; with Setaria faberi (SETFA) [8], 70%; in the series with Lolium perenne (LOLPE) [9], 60%; in series [10] it was 0%; in series [11], 70%; in [12], 100%.
